From publication PMC8600679, “Substituted Two- to Five-Ring Polycyclic Aromatic Compounds Are Potent Agonists of Atlantic Cod (Gadus morhua) Aryl Hydrocarbon Receptors Ahr1a and Ahr2a” (Environmental Science & Technology, 2021)
Read-outs that look alike come from different tables or passages of the source.

Key:
Atlantic cod Ahr2a = target: T1, Atlantic cod Ahr2a (Gadus morhua, UniProt A0A6H1Z3G8); assay: cell-based; conditions: for Ahr2a REP25: EC25 of TCDD divided by concentration of PAC giving 25% of TCDD response; for Efficacy compared to TCDD via Ahr2a: Welch's t-test, Supporting Table S6
T1 sequence (A0A6H1Z3G8 1-1127): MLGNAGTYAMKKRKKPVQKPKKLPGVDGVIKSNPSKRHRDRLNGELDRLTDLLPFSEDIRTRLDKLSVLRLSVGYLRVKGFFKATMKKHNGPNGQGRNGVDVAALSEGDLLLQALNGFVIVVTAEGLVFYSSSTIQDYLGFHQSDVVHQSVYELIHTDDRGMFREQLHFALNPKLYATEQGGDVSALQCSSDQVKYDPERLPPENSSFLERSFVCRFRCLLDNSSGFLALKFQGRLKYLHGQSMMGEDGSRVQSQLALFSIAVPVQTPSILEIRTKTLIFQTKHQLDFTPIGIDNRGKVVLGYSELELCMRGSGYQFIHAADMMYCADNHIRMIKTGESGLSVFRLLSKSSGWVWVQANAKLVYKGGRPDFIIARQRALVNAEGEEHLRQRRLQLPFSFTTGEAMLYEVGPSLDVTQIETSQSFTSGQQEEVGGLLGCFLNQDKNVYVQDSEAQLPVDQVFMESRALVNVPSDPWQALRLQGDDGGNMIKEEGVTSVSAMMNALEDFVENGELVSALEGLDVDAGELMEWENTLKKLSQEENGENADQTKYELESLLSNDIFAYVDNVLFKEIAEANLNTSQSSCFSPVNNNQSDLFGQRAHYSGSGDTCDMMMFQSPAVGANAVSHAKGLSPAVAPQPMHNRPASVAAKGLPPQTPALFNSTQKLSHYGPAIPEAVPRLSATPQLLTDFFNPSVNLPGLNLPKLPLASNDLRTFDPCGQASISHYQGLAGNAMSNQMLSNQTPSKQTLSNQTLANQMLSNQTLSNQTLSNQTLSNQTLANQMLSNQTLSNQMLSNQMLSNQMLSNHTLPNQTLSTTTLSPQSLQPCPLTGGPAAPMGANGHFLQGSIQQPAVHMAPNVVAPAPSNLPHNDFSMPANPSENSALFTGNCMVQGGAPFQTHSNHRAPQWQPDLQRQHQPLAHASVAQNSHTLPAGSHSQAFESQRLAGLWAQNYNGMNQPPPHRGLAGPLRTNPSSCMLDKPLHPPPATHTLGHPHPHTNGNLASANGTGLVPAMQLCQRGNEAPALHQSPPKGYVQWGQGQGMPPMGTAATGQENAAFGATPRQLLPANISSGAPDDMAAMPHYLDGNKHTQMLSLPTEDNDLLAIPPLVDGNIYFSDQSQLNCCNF

Atlantic cod Ahr1a = Atlantic cod Ahr1a (Gadus morhua, UniProt A0A6H1Z2L5); assay: cell-based; conditions: for Ahr1a REP25: EC25 of TCDD divided by concentration of PAC giving 25% of TCDD response; for Efficacy compared to TCDD with Ahr1a: Welch's t-test, Supporting Table S6
Chain of Atlantic cod Ahr1a (A0A6H1Z2L5 1-957): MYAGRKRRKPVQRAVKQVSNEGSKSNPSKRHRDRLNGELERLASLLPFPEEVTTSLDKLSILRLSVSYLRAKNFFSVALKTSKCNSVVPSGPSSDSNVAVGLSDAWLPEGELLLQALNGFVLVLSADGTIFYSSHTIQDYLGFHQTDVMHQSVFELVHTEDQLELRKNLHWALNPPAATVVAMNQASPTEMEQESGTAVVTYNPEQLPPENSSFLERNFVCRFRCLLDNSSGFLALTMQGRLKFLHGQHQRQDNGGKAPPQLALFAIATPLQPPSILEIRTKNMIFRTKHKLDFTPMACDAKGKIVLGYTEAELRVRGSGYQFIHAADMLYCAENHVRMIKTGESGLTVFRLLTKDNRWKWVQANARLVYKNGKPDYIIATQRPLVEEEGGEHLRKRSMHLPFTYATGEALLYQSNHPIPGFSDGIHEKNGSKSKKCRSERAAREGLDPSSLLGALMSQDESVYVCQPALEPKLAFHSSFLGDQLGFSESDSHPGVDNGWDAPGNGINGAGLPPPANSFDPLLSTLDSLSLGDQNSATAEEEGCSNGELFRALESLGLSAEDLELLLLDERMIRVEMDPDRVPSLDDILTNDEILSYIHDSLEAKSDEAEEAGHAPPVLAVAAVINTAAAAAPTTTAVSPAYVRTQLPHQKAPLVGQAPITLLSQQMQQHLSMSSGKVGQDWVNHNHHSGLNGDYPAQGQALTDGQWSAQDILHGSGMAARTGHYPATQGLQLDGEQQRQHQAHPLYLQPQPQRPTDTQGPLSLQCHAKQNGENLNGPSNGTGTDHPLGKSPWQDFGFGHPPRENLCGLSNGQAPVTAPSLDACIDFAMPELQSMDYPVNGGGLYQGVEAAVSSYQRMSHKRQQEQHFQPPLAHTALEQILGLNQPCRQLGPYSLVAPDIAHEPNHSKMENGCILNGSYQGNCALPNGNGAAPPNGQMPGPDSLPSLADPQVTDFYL
Chain of Atlantic cod Ahr1a (A0A8C5CZZ9 1-645 partner): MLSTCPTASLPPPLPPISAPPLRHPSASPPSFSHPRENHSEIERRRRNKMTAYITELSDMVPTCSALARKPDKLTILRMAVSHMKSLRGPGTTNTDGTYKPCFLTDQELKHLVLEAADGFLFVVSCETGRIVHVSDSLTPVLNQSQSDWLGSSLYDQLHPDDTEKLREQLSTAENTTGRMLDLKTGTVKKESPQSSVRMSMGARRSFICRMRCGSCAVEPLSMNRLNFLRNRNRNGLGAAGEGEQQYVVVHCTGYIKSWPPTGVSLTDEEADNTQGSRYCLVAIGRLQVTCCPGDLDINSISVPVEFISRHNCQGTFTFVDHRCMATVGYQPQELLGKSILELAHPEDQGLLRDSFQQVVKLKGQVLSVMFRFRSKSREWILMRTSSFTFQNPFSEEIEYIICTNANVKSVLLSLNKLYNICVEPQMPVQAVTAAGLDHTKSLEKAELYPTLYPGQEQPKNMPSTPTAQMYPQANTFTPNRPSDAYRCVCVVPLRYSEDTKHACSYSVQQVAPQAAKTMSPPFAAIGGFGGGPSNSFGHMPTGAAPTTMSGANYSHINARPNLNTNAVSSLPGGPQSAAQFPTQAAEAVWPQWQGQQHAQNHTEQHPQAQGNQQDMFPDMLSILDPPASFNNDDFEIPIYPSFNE

rat AHR = tested on: rat AHR; design: method as in PMID 17941736, PMID 25108069; conditions: H4IIE-luc reporter assay; cited from earlier work
COS-7 cells = assay: Resazurin reduction viability assay; assay type: cell-based, simian; conditions: highest concentrations used; relative to 0.5% DMSO solvent control
Protocol: COS-7 simian kidney cells were seeded onto 96 well plates (10 000 cells/well) in Dulbecco’s modified Eagle’s medium (DMEM) with phenol red, supplemented with 10% fetal bovine serum (FBS), 4 mM L-glutamate, 1 mM sodium pyruvate, and 100 U/mL penicillin–streptomycin (Merck KGaA, Darmstadt, Germany), and cultivated at 37 °C with 5% CO2 for 24 h. Cells were transiently co-transfected with a eukaryotic expression plasmid (pcDNA3.1/Zeo(+), 31 ng/well), pcDNA3.1/Zeo(+)-based plasmids encoding gmAhr1a or gmAhr2a (3 ng/well), gmArnt1 (6 ng/well),[37] a luciferase reporter plasmid containing four DREs (pGudLuc6.1, 30 ng/well), and a β-galactosidase normalization plasmid (pCMV-βGAL, 30 ng/well),[45],[46] using a Mirus TransIT LT-1 transfection reagent according to the recommendations of the supplier. COS-7 cells were seeded and cultivated in DMEM (4500 mg/L glucose), supplemented with 10% FBS, 1 mM sodium pyruvate, and 4 mM L-glutamine. In the exposure medium, FBS was substituted with 10% charcoal-stripped FBS (VWR International, Radnor). To create the exposure media with the highest test concentration, compounds solved in dimethyl sulfoxide (DMSO) were diluted 1:200 in exposure medium, resulting in exposure media with 1× test compound and 0.5% DMSO. The highest concentration exposure media were serially diluted five times (1:2 for the first dilution, then 1:5) in exposure medium supplemented with 0.5% DMSO. Following transfection, cells were incubated in exposure media containing PACs or solvent control (0.5% DMSO) for 24 h. Reporter gene assays were repeated at least three times and with three technical replicates per exposure. TCDD (30 pM to 100 nM) was used as a known agonist in each experiment. Absorbance and luminescence measurements were performed on an EnSpire Multimode plate reader (PerkinElmer, Waltham, MA). While no wavelength filtering was used to measure firefly luciferase activity by luminescence, absorbance measurements to quantify β-galactosidase activity were performed at 420 nm wavelength. The viability of exposed cells was evaluated using the resazurin reduction assay as previously described.[47],[48]
Recorded luminescence was normalized for variation in transfection efficiencies using β-galactosidase enzyme activity. The difference in normalized light units measured in lysates from exposed cells to solvent-exposed cells was calculated and expressed relative to the maximum response in TCDD-exposed cells. Response curves were prepared by nonlinear regression analyses in Prism v7 and used for the determination of half-maximal effective concentration values (EC50) and maximum efficacies (Emax). EC50 values were only determined for compounds that produced a sigmoidal concentration–response curve. Relative effect potencies 25 (REP25) were determined by dividing the EC25 of TCDD by the concentration of PAC necessary to produce a response equal to 25% of the response of TCDD with gmAhrs, essentially as described by Villeneuve et al. and Lam et al.[49],[50] The D’Agostino–Pearson (Ahr activation data) or Kolmogorov–Smirnov (viability data) normality tests were used to confirm the normal distribution of the data. One-way analysis of variance (ANOVA) and Dunnett′s test were used to compare responses at different concentrations of compounds and solvent control mediated via the same Ahr, in addition to comparing metabolic activity in PAC-exposed cells and cells exposed to solvent control in the resazurin reduction assay. Welch′s t-test was used to compare the maximum Ahr-mediated response and potency (Emax and EC50) between Ahr1a or Ahr2a produced by the same test compound (Prism v7).

[1] = design: method as in PMID 29505926; conditions: cited from earlier work
[2] = COS-7 cells, 24 h exposure, read-out: Ahr2a EC50
[3] = Supplementary Table S5, read-out: Potency (EC50, nM) Ahr2a
[4] = percent of maximum efficacy determined for TCDD, COS-7 cells, 24 h exposure, None = no agonistic response significantly different from solvent, read-out: Ahr2a Relative Emax (%)
[5] = COS-7 cells, 24 h exposure, read-out: Ahr1a EC50
[6] = percent of maximum efficacy determined for TCDD, COS-7 cells, 24 h exposure, None = no agonistic response significantly different from solvent, read-out: Ahr1a Relative Emax (%)

Question: Which results are given for `Clc1cc2c(cc1Cl)Oc1cc(Cl)c(Cl)cc1O2` [TCDD, 2,3,7,8-Tetrachlorodibenzo-p-dioxin, reference compound]?
Answer: EC50 (Atlantic cod Ahr2a; Ahr2a EC50 (nM), COS-7 cells, 24 h exposure): 6.2 nM; Emax (Atlantic cod Ahr2a; COS-7, read-out: Ahr2a Relative Emax (%)): 99.4%; EC50 (Atlantic cod Ahr1a; Ahr1a EC50 (nM), COS-7 cells, 24 h exposure): 1.7 nM; Emax (Atlantic cod Ahr1a; COS-7, read-out: Ahr1a Relative Emax (%)): 99.7%; EC50 (rat AHR): 0.008 to 0.018 nM

Question: Which results are given for `Cc1cc2ccccc2c2ccc3ccccc3c12` [5-MC, 5-Methylchrysene]?
Answer: Metabolic activity (cell viability) of exposed COS-7 cells (COS-7 cells): slight reduction in metabolic activities; fold higher REP25 with Ahr2a compared to Ahr1a (Atlantic cod Ahr2a; Ahr2a versus Ahr1a): 5- to 10 fold; EC50 (Atlantic cod Ahr2a; [2]): 193 nM; Ahr2a REP25 (Atlantic cod Ahr2a): 0.0495; EC50 (Atlantic cod Ahr2a; [3]): 193 nM; Efficacy compared to TCDD via Ahr2a (Atlantic cod Ahr2a): lower efficacies in comparison to TCDD; Emax (Atlantic cod Ahr2a; [4]): 68.4%; EC50 (Atlantic cod Ahr1a; [5]): 596 nM; Ahr1a REP25 (Atlantic cod Ahr1a): 0.00494; EC50 (Atlantic cod Ahr1a; Supplementary Table S5, read-out: Potency (EC50, nM) Ahr1a): 596 nM; Efficacy compared to TCDD with Ahr1a (Atlantic cod Ahr1a): efficacies similar to that of TCDD; Emax (Atlantic cod Ahr1a; [6]): 90.1%; agonistic potential, times higher than CHR ([1]; from TEF values): 100 times; toxic equivalent factor (TEF) ([1]; toxic potential relative to the toxicity of BAP): 1.0

Question: Which EC50 (Atlantic cod Ahr2a; [2]) does the source give for `COc1cc2ccc3c4ccccc4ccc3c2cc1OC` [2,3-DMOC, 2,3-Dimethoxychrysene] here?
Answer: Its EC50 is 359 nM.

Question: And the “Ahr2a REP25” value (Atlantic cod Ahr2a)?
Answer: The value was 0.00911.

Question: What about the EC50 (Atlantic cod Ahr2a; [3]) of the same compound?
Answer: The EC50 was 359 nM.

Question: And the “Efficacy compared to TCDD via Ahr2a” value (Atlantic cod Ahr2a)?
Answer: Its value is “lower efficacies in comparison to TCDD”.

Question: And the “Activation of Ahr2a (agonist or not)” value (Atlantic cod Ahr2a; in vitro transactivation)?
Answer: Its value is “activated the two Ahrs”.

Question: And the Emax (Atlantic cod Ahr2a; [4])?
Answer: Its Emax is 55%.

Question: What about the melting point of the same compound?
Answer: The melting point was 212 to 213.5 °C.

Question: And the EC50 (Atlantic cod Ahr1a; [5])?
Answer: Its EC50 is 199 nM.

Question: And the “Ahr1a REP25” value (Atlantic cod Ahr1a)?
Answer: The value was 0.0083.

Question: What about the “Efficacy compared to TCDD with Ahr1a” value (Atlantic cod Ahr1a) of the same compound?
Answer: Its value is “lower efficacies than TCDD”.

Question: And the “Activation of Ahr1a (agonist or not)” value (Atlantic cod Ahr1a; in vitro transactivation)?
Answer: Its value is “activated the two Ahrs”.

Question: What about the Emax (Atlantic cod Ahr1a; [6]) of the same compound?
Answer: Its Emax is 77.5%.
